{
  "source": "PubChem BioAssay (NCI)",
  "note": "Where “and” joins values, the source holds several entries; their conditions need not be identical. Equal values may be shown once.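 Test compounds were applied to cells in 96-well plates for 48 hours at 5 doses. GI50 marks 50% less growth. TGI marks complete inhibition of growth.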",
  "data": [
    {"test_system": "HS 578T breast", "test": "NCI-60 cell line screen, 48 h", "units": {"GI50": "µM", "TGI": "µM"}, "values": [
      {"compound": "CC(C)[C@@H]1C=C2CC[C@H]3[C@](C)(CN)CCC[C@]3(C)[C@H]2CC1", "GI50": 4.69, "TGI": 20.1},
      {"compound": "O=CNc1ccc2c(c1)C(=O)c1ccccc1-2", "TGI": "> 100"},
      {"compound": "O=C(Nc1ccc(Oc2ccc(Nc3nc4ccccc4s3)cc2)cc1)Nc1ccc(Cl)c(C(F)(F)F)c1", "GI50": 2.07, "TGI": 7.55},
      {"compound": "Nc1c(C(=O)Nc2cccc(C(F)(F)F)c2)sc2nc3c(cc12)CCCCC3", "GI50": 3.8, "TGI": 30.4},
      {"compound": "Nc1ccc(C2=NNC(=O)Cc3cc4c(cc32)OCCO4)cc1Cl", "GI50": 4.33, "TGI": 25},
      {"compound": "COc1ccc2nc3cc(Cl)ccc3c(NCCNCC(C)O)c2c1", "note": "(stereo unspecified)", "GI50": 4.47, "TGI": 21.3},
      {"compound": "CCn1c(-c2nonc2N)nc2c(C#CC(C)(C)O)nc(OC[C@@H](N)c3ccccc3)cc21", "GI50": 4.56, "TGI": 10.7},
      {"compound": "Cn1ccc2c3c(Oc4ccc(NC(N)=O)cc4)ccnc3ccc21", "GI50": 40.1, "TGI": "> 100"},
      {"compound": "Nc1n[nH]c2cc(F)c([C@@H]3Nc4ccc5[nH]ncc5c4[C@H]4C5CCC(C5)[C@@H]34)cc12", "note": "(stereo partly specified)", "GI50": 0.173, "TGI": 11.6},
      {"compound": "COc1ccc(CCN=C2NC(=O)/C(=C/c3ccc4ncccc4c3)S2)cc1", "GI50": "> 25", "TGI": "> 25"},
      {"compound": "COC[C@H]1Cn2cc(-c3nc(Nc4ccnn4C)ncc3C)nc2C(=O)N1Cc1ccc(F)c(F)c1", "GI50": 18.5, "TGI": "> 100"}
    ]},
    {"test_system": "M14 melanoma", "test": "NCI-60 cell line screen, 48 h", "units": {"TGI": "µM"}, "values": [
      {"compound": "O=C(CCCSc1nc(-c2ccccc2)cc(-c2ccccc2)n1)NO", "GI50": "0.927 µM", "TGI": 5.29},
      {"compound": "CC1SC(c2ccc(F)cc2)N(NC(=O)C(O)c2ccccc2)C1=O", "note": "(stereo unspecified)", "GI50": "> 100 µM", "TGI": "> 100"},
      {"compound": "COCCOc1ccc(-c2nc3ccc(-c4nc5ccc(N6CCN(C)CC6)cc5[nH]4)cc3[nH]2)cc1", "GI50": "0.449 µM", "TGI": 2.5},
      {"compound": "Nc1n[nH]c2cccc(C#Cc3cccc(C(=O)Nc4ccc(CN5CCOCC5)c(C(F)(F)F)c4)c3)c12", "GI50": "1.17 µM", "TGI": 3.59},
      {"compound": "CCC(=C/[C@H](C)C/C=C/C(C)=C/[C@@H](C)C(=O)[C@@H](C)[C@H](O)[C@@H](C)CC)/C=C/[C@H]1OC(=O)C=C[C@@H]1C", "GI50": "< 0.01 µM", "TGI": 0.193},
      {"compound": "Nc1ccccc1SC(CC(=O)c1ccccc1)c1cccc([N+](=O)[O-])c1", "note": "(stereo unspecified)", "GI50": "17.3 µM", "TGI": 32.5},
      {"compound": "CN1CC[C@@H](NC(=O)Nc2ccc(C#N)cc2)C[C@@H]1c1nc2ccccc2[nH]1", "GI50": "> 100 µM", "TGI": "> 100"},
      {"compound": "COc1ccc2nc(NC(=O)CSc3nnc4n3S(=O)(=O)c3ccccc3N4c3ccccc3)sc2c1", "GI50": "> 100 µM", "TGI": "> 100"},
      {"compound": "O=C1NC(=NC(CO)Cc2ccccc2)S/C1=C\\c1ccc2ncccc2c1", "note": "(stereo unspecified)", "GI50": "14 µM and 7.08 µM", "TGI": "> 25"},
      {"compound": "Cc1nnc(NC(=O)c2nc(S(=O)(=O)Cc3ccc(F)cc3)ncc2Cl)s1", "GI50": "2.88 µM", "TGI": 10.3},
      {"compound": "CC(C)[C@@H]1C=C2CC[C@H]3[C@](C)(CN)CCC[C@]3(C)[C@H]2CC1", "GI50": "1.86 µM", "TGI": 3.4},
      {"compound": "O=CNc1ccc2c(c1)C(=O)c1ccccc1-2", "TGI": "> 100"},
      {"compound": "O=C(Nc1ccc(Oc2ccc(Nc3nc4ccccc4s3)cc2)cc1)Nc1ccc(Cl)c(C(F)(F)F)c1", "GI50": "1.46 µM", "TGI": 3.13},
      {"compound": "Nc1c(C(=O)Nc2cccc(C(F)(F)F)c2)sc2nc3c(cc12)CCCCC3", "GI50": "4.15 µM", "TGI": 41.5},
      {"compound": "Nc1ccc(C2=NNC(=O)Cc3cc4c(cc32)OCCO4)cc1Cl", "GI50": "2.3 µM", "TGI": "> 50"},
      {"compound": "COc1ccc2nc3cc(Cl)ccc3c(NCCNCC(C)O)c2c1", "note": "(stereo unspecified)", "GI50": "1.68 µM", "TGI": 3.6},
      {"compound": "CCn1c(-c2nonc2N)nc2c(C#CC(C)(C)O)nc(OC[C@@H](N)c3ccccc3)cc21", "GI50": "4.52 µM", "TGI": 8.11},
      {"compound": "Cn1ccc2c3c(Oc4ccc(NC(N)=O)cc4)ccnc3ccc21", "GI50": "> 100 µM", "TGI": "> 100"},
      {"compound": "Nc1n[nH]c2cc(F)c([C@@H]3Nc4ccc5[nH]ncc5c4[C@H]4C5CCC(C5)[C@@H]34)cc12", "note": "(stereo partly specified)", "GI50": "0.147 µM", "TGI": 12.3},
      {"compound": "COc1ccc(CCN=C2NC(=O)/C(=C/c3ccc4ncccc4c3)S2)cc1", "GI50": "> 25 µM", "TGI": "> 25"},
      {"compound": "COC[C@H]1Cn2cc(-c3nc(Nc4ccnn4C)ncc3C)nc2C(=O)N1Cc1ccc(F)c(F)c1", "GI50": "0.0403 µM", "TGI": "> 100"}
    ]},
    {"test_system": "MDA-MB-231 breast", "test": "NCI-60 cell line screen, 48 h", "units": {"TGI": "µM"}, "values": [
      {"compound": "O=C(CCCSc1nc(-c2ccccc2)cc(-c2ccccc2)n1)NO", "GI50": "1.99 µM", "TGI": 7.72},
      {"compound": "CC1SC(c2ccc(F)cc2)N(NC(=O)C(O)c2ccccc2)C1=O", "note": "(stereo unspecified)", "GI50": "> 100 µM", "TGI": "> 100"},
      {"compound": "COCCOc1ccc(-c2nc3ccc(-c4nc5ccc(N6CCN(C)CC6)cc5[nH]4)cc3[nH]2)cc1", "GI50": "2.25 µM", "TGI": 6.49},
      {"compound": "Nc1n[nH]c2cccc(C#Cc3cccc(C(=O)Nc4ccc(CN5CCOCC5)c(C(F)(F)F)c4)c3)c12", "GI50": "1.3 µM", "TGI": 4.7},
      {"compound": "CCC(=C/[C@H](C)C/C=C/C(C)=C/[C@@H](C)C(=O)[C@@H](C)[C@H](O)[C@@H](C)CC)/C=C/[C@H]1OC(=O)C=C[C@@H]1C", "GI50": "< 0.01 µM", "TGI": 2.18},
      {"compound": "Nc1ccccc1SC(CC(=O)c1ccccc1)c1cccc([N+](=O)[O-])c1", "note": "(stereo unspecified)", "GI50": "14.4 µM", "TGI": 28.3},
      {"compound": "CN1CC[C@@H](NC(=O)Nc2ccc(C#N)cc2)C[C@@H]1c1nc2ccccc2[nH]1", "GI50": "> 100 µM", "TGI": "> 100"},
      {"compound": "COc1ccc2nc(NC(=O)CSc3nnc4n3S(=O)(=O)c3ccccc3N4c3ccccc3)sc2c1", "GI50": "23.7 µM", "TGI": "> 100"},
      {"compound": "O=C1NC(=NC(CO)Cc2ccccc2)S/C1=C\\c1ccc2ncccc2c1", "note": "(stereo unspecified)", "GI50": "> 25 µM and 10.3 µM", "TGI": "> 25"},
      {"compound": "Cc1nnc(NC(=O)c2nc(S(=O)(=O)Cc3ccc(F)cc3)ncc2Cl)s1", "GI50": "1.78 µM", "TGI": 3.31},
      {"compound": "CC(C)[C@@H]1C=C2CC[C@H]3[C@](C)(CN)CCC[C@]3(C)[C@H]2CC1", "GI50": "2.12 µM", "TGI": 5.47},
      {"compound": "O=CNc1ccc2c(c1)C(=O)c1ccccc1-2", "TGI": "> 100"},
      {"compound": "O=C(Nc1ccc(Oc2ccc(Nc3nc4ccccc4s3)cc2)cc1)Nc1ccc(Cl)c(C(F)(F)F)c1", "GI50": "1.37 µM", "TGI": 2.86},
      {"compound": "Nc1c(C(=O)Nc2cccc(C(F)(F)F)c2)sc2nc3c(cc12)CCCCC3", "GI50": "4.4 µM", "TGI": 22.7},
      {"compound": "Nc1ccc(C2=NNC(=O)Cc3cc4c(cc32)OCCO4)cc1Cl", "GI50": "27.1 µM", "TGI": "> 50"},
      {"compound": "COc1ccc2nc3cc(Cl)ccc3c(NCCNCC(C)O)c2c1", "note": "(stereo unspecified)", "GI50": "1.49 µM", "TGI": 4.28},
      {"compound": "CCn1c(-c2nonc2N)nc2c(C#CC(C)(C)O)nc(OC[C@@H](N)c3ccccc3)cc21", "GI50": "4.68 µM", "TGI": 8.86},
      {"compound": "Cn1ccc2c3c(Oc4ccc(NC(N)=O)cc4)ccnc3ccc21", "GI50": "> 100 µM", "TGI": "> 100"},
      {"compound": "Nc1n[nH]c2cc(F)c([C@@H]3Nc4ccc5[nH]ncc5c4[C@H]4C5CCC(C5)[C@@H]34)cc12", "note": "(stereo partly specified)", "GI50": "0.2 µM", "TGI": 7.86},
      {"compound": "COc1ccc(CCN=C2NC(=O)/C(=C/c3ccc4ncccc4c3)S2)cc1", "GI50": "> 25 µM", "TGI": "> 25"}
    ]}
  ]
}
